Source: ChEMBL document CHEMBL5705889, “Novel mutant-selective EGFR kinase inhibitors against EGFR T790M” (Nature, 2009)
Calls of active or inactive are those of the source. The calls are words filed in the database; no cut-off is given here.

Tests used:
BaF3 [1] = test: cells; type: functional, cell-based; conditions: Mus musculus, BaF3, 72 h
BaF3 [2] = test: cells; type: functional, cell-based; conditions: Mus musculus, BaF3, 72 h; remark: listed apart in the source
[3] = target: Receptor tyrosine-protein kinase erbB-2 (Homo sapiens) (UniProt P04626); test: Inhibition of ERBB2 phosphorylation in mouse 3T3 cells harboring ERBB2 T798I mutant
Sequence of Receptor tyrosine-protein kinase erbB-2 (Homo sapiens) (P04626 whole entry, looked up): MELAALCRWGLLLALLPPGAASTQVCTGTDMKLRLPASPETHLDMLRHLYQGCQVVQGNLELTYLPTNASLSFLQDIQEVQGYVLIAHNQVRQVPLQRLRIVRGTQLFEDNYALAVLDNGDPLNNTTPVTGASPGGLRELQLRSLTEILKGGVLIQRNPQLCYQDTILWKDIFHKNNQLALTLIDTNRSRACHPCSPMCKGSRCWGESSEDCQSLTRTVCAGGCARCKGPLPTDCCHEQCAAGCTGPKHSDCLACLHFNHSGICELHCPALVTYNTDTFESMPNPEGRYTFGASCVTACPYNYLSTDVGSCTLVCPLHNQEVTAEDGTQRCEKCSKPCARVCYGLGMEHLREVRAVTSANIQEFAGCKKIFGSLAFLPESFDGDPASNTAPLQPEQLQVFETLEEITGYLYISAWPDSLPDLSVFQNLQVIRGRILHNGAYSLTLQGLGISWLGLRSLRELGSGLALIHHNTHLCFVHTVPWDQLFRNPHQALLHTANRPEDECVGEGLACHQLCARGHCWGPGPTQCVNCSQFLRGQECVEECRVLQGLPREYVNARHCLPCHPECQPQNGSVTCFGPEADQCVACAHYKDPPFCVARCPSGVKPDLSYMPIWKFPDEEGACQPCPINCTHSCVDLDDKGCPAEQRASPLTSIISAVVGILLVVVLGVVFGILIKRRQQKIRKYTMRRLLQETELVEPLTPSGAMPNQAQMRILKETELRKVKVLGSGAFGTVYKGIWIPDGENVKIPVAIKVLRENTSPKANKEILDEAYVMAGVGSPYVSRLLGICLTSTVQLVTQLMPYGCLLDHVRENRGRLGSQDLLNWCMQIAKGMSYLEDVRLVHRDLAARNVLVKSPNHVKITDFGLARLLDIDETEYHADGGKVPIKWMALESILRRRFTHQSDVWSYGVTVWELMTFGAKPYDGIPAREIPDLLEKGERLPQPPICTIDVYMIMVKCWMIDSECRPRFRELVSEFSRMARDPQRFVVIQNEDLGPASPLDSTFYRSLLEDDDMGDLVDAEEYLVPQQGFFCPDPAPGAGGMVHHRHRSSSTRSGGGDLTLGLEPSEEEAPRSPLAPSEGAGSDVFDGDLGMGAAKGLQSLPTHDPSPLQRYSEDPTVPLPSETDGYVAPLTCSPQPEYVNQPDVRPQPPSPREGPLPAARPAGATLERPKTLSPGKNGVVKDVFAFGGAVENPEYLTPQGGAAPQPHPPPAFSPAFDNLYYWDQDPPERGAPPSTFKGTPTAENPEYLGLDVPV

HCC827 = test: cells; type: functional, cell-based; conditions: Homo sapiens, HCC827, 72 h
cells [4] = type: functional, cell-based; conditions: Homo sapiens, HCC827 Gefitinib-resistant (GR) cell, 72 h
BaF3 [5] = test: cells; type: functional, cell-based; conditions: Mus musculus, BaF3, 72 h; remark: listed apart in the source
cells [6] = type: functional, cell-based; conditions: Homo sapiens, HN11, 72 h
BaF3 [7] = test: cells; type: functional, cell-based; conditions: Mus musculus, BaF3, 72 h; remark: listed apart in the source
BaF3 [8] = test: cells; type: functional, cell-based; conditions: Mus musculus, BaF3, 72 h; remark: listed apart in the source
BaF3 [9] = test: cells; type: functional, cell-based; conditions: Mus musculus, BaF3, 72 h; remark: listed apart in the source
BaF3 [10] = test: cells; type: functional, cell-based; conditions: Mus musculus, BaF3, 72 h; remark: listed apart in the source
cells [11] = type: functional, cell-based; conditions: Homo sapiens, NCI-H1819, 72 h
BaF3 [12] = test: cells; type: functional, cell-based; conditions: Mus musculus, BaF3, 72 h; remark: listed apart in the source
[13] = Potency index, ratio of HKI-272 IC50 to test compound IC50 for antiproliferative activity against human PC9 Gefitinib-resistant (GR) cell harboring EGFR Del E746_A750/T790M mutant assessed as inhibition of cell growth incubated for 72 hrs by MTS assay; type: functional
Calu-3 = test: cells; type: functional, cell-based; conditions: Homo sapiens, Calu-3, 72 h
cells [14] = type: functional, cell-based; conditions: Homo sapiens, Gefitinib-resistant PC9, 72 h
NCI-H3255 = test: Antiproliferative activity against human NCI-H3255 cells harboring EGFR L858R mutant assessed as inhibition of cell growth incubated for 72 hrs by MTS assay; type: functional, cell-based; conditions: NCI-H3255, 72 h
BaF3 [15] = test: cells; type: functional, cell-based; conditions: Mus musculus, BaF3, 72 h; remark: listed apart in the source
cells [16] = type: functional, cell-based; conditions: Homo sapiens, NCI-H1781, 72 h
PC-9 = test: cells; type: functional, cell-based; conditions: Homo sapiens, PC-9, 72 h
[17] = target: T1, Epidermal growth factor receptor (Homo sapiens, UniProt P00533); test: Inhibition of wildtype EGFR (unknown origin) transformed in mouse BaF3 cells; type: cell-based
T1 sequence (P00533 whole entry): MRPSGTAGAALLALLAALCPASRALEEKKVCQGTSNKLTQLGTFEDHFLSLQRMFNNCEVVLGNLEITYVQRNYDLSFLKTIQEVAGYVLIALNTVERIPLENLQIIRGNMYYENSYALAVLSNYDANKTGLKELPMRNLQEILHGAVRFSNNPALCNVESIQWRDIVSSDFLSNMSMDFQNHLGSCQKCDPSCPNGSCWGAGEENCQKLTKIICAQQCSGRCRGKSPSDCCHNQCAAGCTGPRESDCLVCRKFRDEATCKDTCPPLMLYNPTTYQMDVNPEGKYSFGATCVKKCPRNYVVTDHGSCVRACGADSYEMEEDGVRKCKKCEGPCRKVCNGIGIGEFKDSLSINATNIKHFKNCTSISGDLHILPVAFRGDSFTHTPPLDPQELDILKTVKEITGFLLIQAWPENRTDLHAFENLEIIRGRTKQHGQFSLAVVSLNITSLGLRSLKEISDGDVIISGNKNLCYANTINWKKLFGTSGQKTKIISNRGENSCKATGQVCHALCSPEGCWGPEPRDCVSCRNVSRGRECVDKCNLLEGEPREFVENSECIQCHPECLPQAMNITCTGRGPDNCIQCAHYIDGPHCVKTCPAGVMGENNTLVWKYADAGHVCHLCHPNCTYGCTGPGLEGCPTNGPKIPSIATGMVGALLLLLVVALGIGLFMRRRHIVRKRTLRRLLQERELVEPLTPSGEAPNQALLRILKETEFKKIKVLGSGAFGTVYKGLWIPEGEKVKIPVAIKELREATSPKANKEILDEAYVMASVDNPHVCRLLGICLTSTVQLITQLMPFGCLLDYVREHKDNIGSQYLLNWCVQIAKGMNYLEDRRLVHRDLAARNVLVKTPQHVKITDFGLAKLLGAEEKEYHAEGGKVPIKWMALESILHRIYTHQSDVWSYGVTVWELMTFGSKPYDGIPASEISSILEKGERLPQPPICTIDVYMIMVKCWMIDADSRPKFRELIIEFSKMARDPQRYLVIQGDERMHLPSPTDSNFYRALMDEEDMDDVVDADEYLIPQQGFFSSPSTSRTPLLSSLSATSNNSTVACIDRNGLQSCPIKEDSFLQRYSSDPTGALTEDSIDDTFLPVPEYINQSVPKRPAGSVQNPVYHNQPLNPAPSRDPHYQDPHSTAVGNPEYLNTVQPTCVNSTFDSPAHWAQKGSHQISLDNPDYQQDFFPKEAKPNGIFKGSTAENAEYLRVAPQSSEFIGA

[18] = target: RAC-alpha serine/threonine-protein kinase (Homo sapiens) (UniProt P31749); test: Inhibition of AKT phosphorylation in human NCI-H1975 cells at 0.01 to 1 uM incubated for 16 hrs by immunoblot analysis; type: cell-based; conditions: dose 0.01-1 µM
Sequence of RAC-alpha serine/threonine-protein kinase (Homo sapiens) (P31749 whole entry): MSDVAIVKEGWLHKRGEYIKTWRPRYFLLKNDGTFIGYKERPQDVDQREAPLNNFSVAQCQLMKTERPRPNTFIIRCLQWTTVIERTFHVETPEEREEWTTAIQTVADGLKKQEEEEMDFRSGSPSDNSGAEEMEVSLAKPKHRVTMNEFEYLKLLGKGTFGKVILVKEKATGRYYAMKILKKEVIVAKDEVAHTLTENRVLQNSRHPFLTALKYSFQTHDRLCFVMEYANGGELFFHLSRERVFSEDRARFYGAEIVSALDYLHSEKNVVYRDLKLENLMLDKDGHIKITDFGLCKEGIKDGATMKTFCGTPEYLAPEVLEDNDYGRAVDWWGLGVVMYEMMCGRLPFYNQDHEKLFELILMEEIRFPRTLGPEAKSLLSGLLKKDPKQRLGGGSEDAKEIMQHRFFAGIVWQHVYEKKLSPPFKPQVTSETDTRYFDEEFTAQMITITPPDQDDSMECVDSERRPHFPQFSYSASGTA

[19] = target: T2, Mitogen-activated protein kinase; ERK1/ERK2 (Homo sapiens) (UniProt P27361+P28482); test: Inhibition of ERK1/2 phosphorylation in human PC9 Gefitinib-resistant (GR) cells at 0.01 to 1 uM incubated for 16 hrs by immunoblot analysis; type: cell-based; conditions: PC9 Gefitinib-resistant (GR) cell, dose 0.01-1 µM
T2 sequence (P27361 whole entry, looked up): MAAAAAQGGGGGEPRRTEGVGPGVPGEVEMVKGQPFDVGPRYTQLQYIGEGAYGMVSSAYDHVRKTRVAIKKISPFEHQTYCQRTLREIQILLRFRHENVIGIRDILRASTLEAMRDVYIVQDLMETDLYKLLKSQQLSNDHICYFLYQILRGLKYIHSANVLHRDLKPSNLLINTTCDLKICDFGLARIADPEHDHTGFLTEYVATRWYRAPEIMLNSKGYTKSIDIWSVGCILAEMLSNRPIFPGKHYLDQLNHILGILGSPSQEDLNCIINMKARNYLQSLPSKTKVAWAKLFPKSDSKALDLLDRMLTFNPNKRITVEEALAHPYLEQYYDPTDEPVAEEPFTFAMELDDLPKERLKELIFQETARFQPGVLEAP
T2 sequence (P28482 whole entry, looked up): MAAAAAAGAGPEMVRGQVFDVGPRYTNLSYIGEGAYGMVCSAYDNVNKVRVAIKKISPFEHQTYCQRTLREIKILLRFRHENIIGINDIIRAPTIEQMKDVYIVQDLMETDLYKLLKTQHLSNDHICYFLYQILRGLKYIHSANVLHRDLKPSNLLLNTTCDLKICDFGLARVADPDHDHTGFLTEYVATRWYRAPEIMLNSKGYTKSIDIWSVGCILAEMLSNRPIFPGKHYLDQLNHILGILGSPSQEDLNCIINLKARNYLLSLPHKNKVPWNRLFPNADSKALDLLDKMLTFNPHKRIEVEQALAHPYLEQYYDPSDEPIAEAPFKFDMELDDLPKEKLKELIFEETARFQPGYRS

[20] = target: T2, Mitogen-activated protein kinase; ERK1/ERK2 (Homo sapiens); test: Inhibition of ERK1/2 phosphorylation in human NCI-H1975 cells at 0.01 to 1.0 uM incubated for 16 hrs by immunoblot analysis; type: cell-based; conditions: dose 0.01-1 µM
[21] = target: T1, Epidermal growth factor receptor; test: Inhibition of EGFR phosphorylation in human NCI-H1975 cells at 0.01 to 1 uM incubated for 16 hrs by immunoblot analysis; type: cell-based; conditions: dose 0.01-1 µM
[22] = target: Tyrosine-protein kinase JAK2 (Homo sapiens, UniProt O60674); test: Inhibition of TEL fused JAK2 (unknown origin) transformed in mouse BaF3 cells; type: cell-based
Sequence of Tyrosine-protein kinase JAK2 (O60674 whole entry, looked up, the tested form may be a part): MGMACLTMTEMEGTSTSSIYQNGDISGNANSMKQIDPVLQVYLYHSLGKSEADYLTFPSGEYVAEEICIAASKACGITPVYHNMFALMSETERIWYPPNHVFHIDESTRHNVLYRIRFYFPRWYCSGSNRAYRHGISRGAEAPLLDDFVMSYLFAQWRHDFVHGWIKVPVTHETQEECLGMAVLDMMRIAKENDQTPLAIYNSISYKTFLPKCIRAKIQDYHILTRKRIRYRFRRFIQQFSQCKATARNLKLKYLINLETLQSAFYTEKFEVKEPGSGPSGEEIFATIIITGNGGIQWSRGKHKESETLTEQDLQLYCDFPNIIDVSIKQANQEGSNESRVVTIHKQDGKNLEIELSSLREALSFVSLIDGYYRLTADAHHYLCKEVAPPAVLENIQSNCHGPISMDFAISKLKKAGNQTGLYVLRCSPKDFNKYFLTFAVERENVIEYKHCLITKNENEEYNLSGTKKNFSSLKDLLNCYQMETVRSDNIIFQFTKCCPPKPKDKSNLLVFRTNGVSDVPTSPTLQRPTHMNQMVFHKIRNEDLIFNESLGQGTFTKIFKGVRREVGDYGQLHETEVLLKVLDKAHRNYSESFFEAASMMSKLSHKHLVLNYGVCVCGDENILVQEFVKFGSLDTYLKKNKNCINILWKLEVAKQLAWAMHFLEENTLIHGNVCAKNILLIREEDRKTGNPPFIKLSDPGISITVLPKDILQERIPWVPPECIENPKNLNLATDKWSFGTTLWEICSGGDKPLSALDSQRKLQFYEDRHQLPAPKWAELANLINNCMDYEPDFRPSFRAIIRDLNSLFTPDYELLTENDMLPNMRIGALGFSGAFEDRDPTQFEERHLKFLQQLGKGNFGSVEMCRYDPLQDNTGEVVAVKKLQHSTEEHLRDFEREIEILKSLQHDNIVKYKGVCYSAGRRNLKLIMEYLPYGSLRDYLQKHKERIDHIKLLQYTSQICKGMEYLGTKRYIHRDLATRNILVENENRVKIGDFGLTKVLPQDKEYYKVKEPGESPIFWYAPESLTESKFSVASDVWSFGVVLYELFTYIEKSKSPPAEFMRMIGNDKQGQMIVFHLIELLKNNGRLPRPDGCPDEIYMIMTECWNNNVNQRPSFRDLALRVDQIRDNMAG

[23] = target: RAC-alpha serine/threonine-protein kinase (Homo sapiens) (UniProt P31749); test: Inhibition of AKT phosphorylation in human PC9 Gefitinib-resistant (GR) cells at 0.01 to 1 uM incubated for 16 hrs by immunoblot analysis; type: cell-based; conditions: PC9 Gefitinib-resistant (GR) cell, dose 0.01-1 µM
[24] = target: T1, Epidermal growth factor receptor; test: Inhibition of EGFR phosphorylation in human PC9 Gefitinib-resistant (GR) cells at 0.01 to 1 uM incubated for 16 hrs by immunoblot analysis; type: cell-based; conditions: PC9 Gefitinib-resistant (GR) cell, dose 0.01-1 µM

| SMILES | IC50 (BaF3 [1]) | IC50 (BaF3 [2]) | inhibition [3] | IC50 (HCC827) | IC50 (cells [4]) | IC50 (BaF3 [5]) | IC50 (cells [6]) | IC50 (BaF3 [7]) | IC50 (BaF3 [8]) | IC50 (BaF3 [9]) | IC50 (BaF3 [10]) | IC50 (cells [11]) | IC50 (BaF3 [12]) | IC50 (Calu-3) | IC50 (cells [14]) | IC50 (NCI-H3255) | IC50 (BaF3 [15]) | IC50 (cells [16]) | IC50 (PC-9) | other results |
| --- | --- | --- | --- | --- | --- | --- | --- | --- | --- | --- | --- | --- | --- | --- | --- | --- | --- | --- | --- | --- |
| C=CC(=O)Nc1cccc(Sc2nc(Nc3ccc(N4CCN(C)CC4)cc3)ncc2Cl)c1 | 20 nM | 2 nM | inactive | 1 nM | > 3300 nM | 374 nM | 1820 nM | 6 nM | 2540 nM | 6 nM | 48 nM | 738 nM | 306 nM | 915 nM | 9 nM | 66 nM | 2010 nM | 744 nM | 6 nM | Ratio IC50 [13]: <=300 |
| C=CC(=O)Nc1cccc(Oc2nc(Nc3ccc(N4CCN(C)CC4)cc3)ncc2Cl)c1 | 10 nM | 2 nM | inactive | 3 nM | > 3300 nM | 248 nM | 750 nM | 14 nM | 2550 nM | 2 nM | 66 nM | 429 nM | 632 nM | 743 nM | 29 nM | 73 nM | 2740 nM | 736 nM | 15 nM | IC50 [17]: 1820 nM; inhibition [18]: Active; inhibition [19]: Active; inhibition [20]: Active; inhibition [21]: Active; IC50 [22]: 1980 nM; inhibition [23]: Active; inhibition [24]: Active |
